In patent publication US20230048888A1, “USE OF TRIAZOLOTRIAZINE DERIVATIVE IN TREATMENT OF DISEASES” (ZHEJIANG VIMGREEN PHARMACEUTICALS, LTD., priority 2019, published 2023):
Like-named read-outs stand apart in the source and are kept apart here.

How the values were obtained:
[1] = Pharmacokinetics of test compounds in SD rats (15.2; IV and PO, mixed administration); format: in vivo; conditions: for AUC(0-t) / Cmax / half-life: male, Sprague-Dawley, rat, plasma; for half-life: read-out: T½ (converted)
Method: Administration dose: the compounds in this group were all administered in a mixed way, with 6 compounds in each group for mixed PO administration.
Blood was collected based on the blood collection points in the test protocol. 50 μL of plasma sample was added with acetonitrile (containing 5 ng/mL Verapamil) being 3 folds of the volume thereof; the resulting mixture was vortexed for 30 s, and then centrifuged for 15 min at 15,000 rpm at 4° C.; and 10μ L of supernatant was taken for LC-MS/MS analysis.
For each compound, 3 male SD rats weighing 200-220 g were fasted for one night before dosage, but had access to water.
Orally intragastric administration: before intragastric administration and at 0.083 h, 0.25 h, 0.5 h, 1 h, 2 h, 4 h, 8 h and 24 h after administration (for Compounds 40, 27, 40 and 47), or at 0.25 h, 0.5 h, 1 h, 4 h, 6 h and 8 h after administration (for Compounds 44 and 48), orbital blood was collected and put in a test tube that was treated with heparin sodium, and after centrifugation, the supernatant plasma was collected for LC-MS/MS analysis.
The plasma samples were processed according to the method for “sample treatment” and then analyzed by LC-MS/MS, accompanied with the standard curve and quality control samples. At a time point when the upper limit of quantification was exceeded, the samples were diluted 10 or 100 folds for analysis. All measured data were collected and processed by Analyst 1.6.3 software, and the data were calculated and processed with Microsoft Excel. With DAS 3.2.8 software, the pharmacokinetic parameters were calculated by the statistical moment method. The pharmacokinetic parameters mainly include Tmax, t1/2, Cmax, AUC(0-t), etc.

[2] = target: T1, Human adenosine ADORA1 receptor membrane protein (Homo sapiens, UniProt P30542); assay: Radioisotope ligand competitive binding, ADORA1 ([3H] DPCPX); conditions: ADORA1 (IC50, nM, n = 3), binding test
T1 construct: purchased PerkinElmer ES-010-M400UA
T1 sequence (P30542 1-326): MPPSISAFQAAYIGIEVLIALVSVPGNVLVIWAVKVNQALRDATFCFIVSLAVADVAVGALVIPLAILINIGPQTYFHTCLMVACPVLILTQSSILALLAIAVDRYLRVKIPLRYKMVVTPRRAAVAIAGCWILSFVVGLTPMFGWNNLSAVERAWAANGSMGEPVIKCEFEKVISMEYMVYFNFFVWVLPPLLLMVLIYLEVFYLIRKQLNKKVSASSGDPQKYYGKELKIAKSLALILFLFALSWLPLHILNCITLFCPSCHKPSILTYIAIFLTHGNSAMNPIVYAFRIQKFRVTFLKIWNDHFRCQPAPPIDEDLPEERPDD
Method: ADORA1: 25 mM HEPES pH 7.4, 5 mM MgCl2, 1 mM CaCl2, 100 mM NaCl
4) Preparation of compounds: the test compounds and the reference compounds were separately diluted with 100% DMSO.
(§1) 1 μL of a sample to be tested and 1 μL of a reference compound were added to a 96-well plate in sequence. […] 100 μL of cells and 100 μL of isotopes were added to all experimental wells. The 96-well plate was sealed; ADORA1, ADORA2B, and ADORA3 were incubated for 1 hour on a shaker (300 rpm) at room temperature (22° C.); and ADORA2A was incubated for 2 hours on a shaker (300 rpm) at room temperature (22° C.). At the same time, a GF/C filter plate was soaked with ADORA1, ADORA2A, ADORA2B, and ADORA3 by using 0.3% PEI for at least 30 minutes at room temperature, at 50 μL/well. After the incubation was completed, the incubated reaction system was collected onto the GF/C filter plate with a Harvester, washed 4 times and then dried for 0.5 hours in an oven at 50° C. The bottom of the dried GF/C filter plate was sealed with a film, 50 μL of scintillation solution was added to each well, which was then sealed with a Top-seal-A film. With Microbeta readings, the data was analyzed by GraphPad Prism 5.0.
(§2) % Inhibition=100×(1−(Sample_raw value−Low control_Average)/(High control_Average−Low control_Average))
(§3) The data was fitted with “log(inhibitor) vs response-variable slope” in GraphPad Prism 5.0 to obtain IC50.

[3] = target: T2, Human adenosine ADORA3 receptor membrane protein (Homo sapiens, UniProt P0DMS8); assay: Radioisotope ligand competitive binding, ADORA3 ([3H] HEMADO); conditions: ADORA3 (IC50, nM, n = 3), binding test
T2 construct: purchased PerkinElmer ES-012-M400UA
T2 sequence (P0DMS8 1-318): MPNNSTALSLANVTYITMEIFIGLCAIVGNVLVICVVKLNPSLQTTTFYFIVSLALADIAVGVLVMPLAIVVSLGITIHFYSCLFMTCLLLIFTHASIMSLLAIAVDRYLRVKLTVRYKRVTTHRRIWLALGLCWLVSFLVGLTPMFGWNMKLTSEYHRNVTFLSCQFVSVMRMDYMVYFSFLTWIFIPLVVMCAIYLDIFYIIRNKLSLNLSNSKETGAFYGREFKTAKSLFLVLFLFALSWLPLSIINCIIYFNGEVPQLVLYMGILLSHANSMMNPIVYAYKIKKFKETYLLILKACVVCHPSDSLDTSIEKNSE
Method: ADORA3: 25 mM HEPES pH 7.4, 10 mM MgCl2, 1 mM CaCl2, 0.5% BSA
4) Preparation of compounds: the test compounds and the reference compounds were separately diluted with 100% DMSO. For the test compounds, the initial concentration was 10 μM, with double secondary wells; 4-fold gradient dilution was carried out at 10 points; and the final working concentration was 0.038 nM-10 μM (for the second and third detection of the test compound against an ADORA2A target, the initial concentration was 2 μM, with double secondary wells, 4-fold gradient dilution was carried out at 10 points, and the final working concentration was 0.0076 nM-2 μM). For the ADORA1, ADORA2A, ADORA2B, and ADORA3 reference compounds, the initial concentration was 1 μM, with double secondary wells, 4-fold gradient dilution was carried out at 10 points, and the final working concentration was 0.0038 nM-1 μM.
as §1, §2, §3

| SMILES | Cl_F_pred ([1]; SD rats, PO, 10 mg/kg) | F ([1]; SD rats, PO, 10 mg/kg) | AUC(0-t) ([1]; SD rats, PO, 10 mg/kg) | Cmax ([1]; SD rats, PO, 10 mg/kg) | half-life ([1]; SD rats, PO, 10 mg/kg) | IC50 ([2]; Table 10 (IC50)) | IC50 ([2]; Table 11) | IC50 ([3]; Table 10 (IC50)) | IC50 ([3]; Table 11) | half-life ([1]; po, […]) | AUC(0-t) ([1]; SD rats, PO, 2 mg/kg, mixed administration (6 compounds per group)) |
| --- | --- | --- | --- | --- | --- | --- | --- | --- | --- | --- | --- |
| COCCNc1ccc(CCNc2nc(N)n3nc(-c4ccco4)nc3n2)cc1 [Compound 27, 2-(furan-2-yl)-N5-(4-((2-methoxyethyl)amino)phenethyl)-[1,2,4]triazolo[1,5-a][1,3,5]triazine-5,7-diamine] | 139.069 mL/min/kg | 127.5% | 1070 ng·h/mL | 325 ng/mL | 2.42 h |  |  |  |  |  |  |
| Nc1nc(NCCc2ccc(NC3COC3)cc2)nc2nc(-c3ccco3)nn12 [Compound 22, 2-(furan-2-yl)-N5-(4-(oxetan-3-ylamino)phenethyl)-[1,2,4]triazolo[1,5-a][1,3,5]triazine-5,7-diamine] |  |  |  |  |  | 821 ± 54.2 nM | 564 nM | 872 ± 492 nM | 703 nM |  |  |
| Cn1nnc(-c2ccc(CCNc3nc(N)n4nc(-c5ccco5)nc4n3)cc2)n1 [Compound 40, N5-(4-(2-methyl-2H-tetrazol-5-yl)phenethyl)-2-(furan-2-yl)-[1,2,4]triazolo[1,5-a][1,3,5]triazine-5,7-diamine] | 22.9228 mL/min/kg | 46.97% | 6600 ng·h/mL | 2440 ng/mL | 2.44 h | 552 ± 283 nM | 441 nM | 2000 ± 1030 nM | 1610 nM | 0.23 h | 2360 ng·h/mL |
